Measured values taken from patent US12365696B2, “Small-molecule focal adhesion kinase (FAK) inhibitors” (DANA-FARBER CANCER INSTITUTE, INC., priority 2019, dated 2025).

What was measured:
Test in all cases: KINOMEscan
Format in all cases: binding
[1] = target: ACVR2B (Homo sapiens (Human), UniProt Q13705); details: 10000 nM, read-out: Percent Control
[2] = target: AKT2 (Homo sapiens (Human), UniProt P31751); details: AKT2, 10000 nM; read-out: Percent Control
[3] = target: BIKE (Homo sapiens (Human), UniProt Q9NSY1); details: 10000 nM, read-out: Percent Control
[4] = target: CSNK1G1 (Homo sapiens (Human), UniProt Q9HCP0); details: CSNK1G1, 10000 nM; read-out: Percent Control
[5] = target: EPHB3 (Homo sapiens (Human), UniProt P54753); details: EPHB3, 10000 nM; read-out: Percent Control
[6] = target: FGFR3(G697C) (Homo sapiens (Human), UniProt P22607, G697C); details: 10000 nM, read-out: Percent Control
[7] = target: FRK (Homo sapiens (Human), UniProt P42685); details: 10000 nM, read-out: Percent Control
[8] = target: GAK (Homo sapiens (Human), UniProt O14976); details: 10000 nM, read-out: Percent Control
[9] = target: HIPK2 (Homo sapiens (Human), UniProt Q9H2X6); details: HIPK2, 10000 nM; read-out: Percent Control
[10] = target: HUNK (Homo sapiens (Human), UniProt P57058); details: 10000 nM, read-out: Percent Control
[11] = target: INSR (Homo sapiens (Human), UniProt P06213); details: 10000 nM, read-out: Percent Control
[12] = target: LATS2 (Homo sapiens (Human), UniProt Q9NRM7); details: LATS2, 10000 nM; read-out: Percent Control
[13] = target: LRRK2 (Homo sapiens (Human), UniProt Q5S007); details: LRRK2, 10000 nM; read-out: Percent Control
[14] = target: LYN (Homo sapiens (Human), UniProt P07948); details: 10000 nM, read-out: Percent Control
[15] = target: MAPKAPK2 (Homo sapiens (Human), UniProt P49137); details: MAPKAPK2, 10000 nM; read-out: Percent Control
[16] = target: MEK2 (Homo sapiens (Human), UniProt P36507); details: MEK2, 10000 nM; read-out: Percent Control
[17] = target: MEK5 (Homo sapiens (Human), UniProt Q13163); details: MEK5, 10000 nM; read-out: Percent Control
[18] = target: MST2 (Homo sapiens (Human), UniProt Q13188); details: MST2, 10000 nM; read-out: Percent Control
[19] = target: p38-gamma (Homo sapiens (Human), UniProt P53778); details: 10000 nM, read-out: Percent Control
[20] = target: PFCDPK1(P. falciparum) (Plasmodium falciparum (isolate 3D7), UniProt P62344); details: 10000 nM, read-out: Percent Control
[21] = target: PIK3CA(E545K) (Homo sapiens (Human), UniProt P42336, E545K); details: 10000 nM, read-out: Percent Control
[22] = target: PIK3CA(Q546K) (Homo sapiens (Human), UniProt P42336, Q546K); details: 10000 nM, read-out: Percent Control
[23] = target: PIK3CD (Homo sapiens (Human), UniProt O00329); details: 10000 nM, read-out: Percent Control
[24] = target: PLK2 (Homo sapiens (Human), UniProt Q9NYY3); details: PLK2, 10000 nM; read-out: Percent Control
[25] = target: PLK4 (Homo sapiens (Human), UniProt O00444); details: PLK4, 10000 nM; read-out: Percent Control
[26] = target: QSK (Homo sapiens (Human), UniProt Q9Y2K2); details: 10000 nM, read-out: Percent Control
[27] = target: RSK2(Kin.Dom.2-C-terminal) (Homo sapiens (Human), UniProt P51812); details: 10000 nM, read-out: Percent Control
[28] = target: RSK3(Kin.Dom.1-N-terminal) (Homo sapiens (Human), UniProt Q15349); details: 10000 nM, read-out: Percent Control
[29] = target: S6K1 (Homo sapiens (Human), UniProt P23443); details: S6K1, 10000 nM; read-out: Percent Control
[30] = target: SGK (Homo sapiens (Human), UniProt O00141); details: 10000 nM, read-out: Percent Control
[31] = target: SNARK (Homo sapiens (Human), UniProt Q9H093); details: 10000 nM, read-out: Percent Control
[32] = target: TAOK1 (Homo sapiens (Human), UniProt Q7L7X3); details: TAOK1, 10000 nM; read-out: Percent Control
[33] = target: TAOK2 (Homo sapiens (Human), UniProt Q9UL54); details: TAOK2, 10000 nM; read-out: Percent Control
[34] = target: VPS34 (Homo sapiens (Human), UniProt Q8NEB9); details: VPS34, 10000 nM; read-out: Percent Control
[35] = target: YES (Homo sapiens (Human), UniProt P07947); details: 10000 nM, read-out: Percent Control

Sequence of PIK3CA(Q546K) (P42336 whole entry Q546K): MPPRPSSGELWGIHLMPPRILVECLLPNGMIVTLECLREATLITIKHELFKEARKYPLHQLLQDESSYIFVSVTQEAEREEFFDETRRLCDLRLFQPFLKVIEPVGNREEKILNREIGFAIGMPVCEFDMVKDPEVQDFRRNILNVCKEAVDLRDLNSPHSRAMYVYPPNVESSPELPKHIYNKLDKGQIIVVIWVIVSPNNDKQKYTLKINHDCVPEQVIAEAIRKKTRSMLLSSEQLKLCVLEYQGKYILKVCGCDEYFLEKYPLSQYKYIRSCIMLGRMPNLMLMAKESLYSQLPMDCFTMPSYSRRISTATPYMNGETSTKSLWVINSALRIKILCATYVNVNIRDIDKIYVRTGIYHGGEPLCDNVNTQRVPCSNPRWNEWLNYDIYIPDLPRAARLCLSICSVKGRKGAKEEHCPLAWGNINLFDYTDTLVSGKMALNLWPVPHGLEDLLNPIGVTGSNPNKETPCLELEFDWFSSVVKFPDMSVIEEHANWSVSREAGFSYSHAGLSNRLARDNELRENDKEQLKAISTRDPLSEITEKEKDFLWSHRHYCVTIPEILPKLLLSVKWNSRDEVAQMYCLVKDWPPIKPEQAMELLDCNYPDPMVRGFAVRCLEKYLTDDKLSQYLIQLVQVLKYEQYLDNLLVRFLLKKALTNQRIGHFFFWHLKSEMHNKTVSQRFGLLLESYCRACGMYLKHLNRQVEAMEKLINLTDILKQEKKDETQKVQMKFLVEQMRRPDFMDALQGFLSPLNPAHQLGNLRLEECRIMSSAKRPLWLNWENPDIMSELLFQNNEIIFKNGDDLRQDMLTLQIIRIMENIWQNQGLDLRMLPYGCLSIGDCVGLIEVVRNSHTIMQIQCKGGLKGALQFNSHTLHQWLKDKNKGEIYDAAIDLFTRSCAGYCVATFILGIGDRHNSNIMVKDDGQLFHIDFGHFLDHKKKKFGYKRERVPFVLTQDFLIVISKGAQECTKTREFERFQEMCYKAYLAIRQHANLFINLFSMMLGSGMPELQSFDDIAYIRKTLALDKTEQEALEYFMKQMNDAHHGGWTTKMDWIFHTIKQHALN
Sequence of p38-gamma (P53778 whole entry): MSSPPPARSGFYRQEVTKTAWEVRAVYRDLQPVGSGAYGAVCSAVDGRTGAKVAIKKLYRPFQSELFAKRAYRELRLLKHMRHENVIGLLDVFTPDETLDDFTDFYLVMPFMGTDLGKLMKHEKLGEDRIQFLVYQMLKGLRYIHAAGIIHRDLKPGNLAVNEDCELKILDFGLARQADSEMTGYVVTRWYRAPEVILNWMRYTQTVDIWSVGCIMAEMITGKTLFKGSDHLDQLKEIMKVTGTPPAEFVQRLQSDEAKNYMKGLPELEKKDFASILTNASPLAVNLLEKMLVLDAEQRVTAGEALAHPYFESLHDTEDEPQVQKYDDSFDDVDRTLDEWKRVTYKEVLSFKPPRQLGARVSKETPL
Sequence of ACVR2B (Q13705 19-512): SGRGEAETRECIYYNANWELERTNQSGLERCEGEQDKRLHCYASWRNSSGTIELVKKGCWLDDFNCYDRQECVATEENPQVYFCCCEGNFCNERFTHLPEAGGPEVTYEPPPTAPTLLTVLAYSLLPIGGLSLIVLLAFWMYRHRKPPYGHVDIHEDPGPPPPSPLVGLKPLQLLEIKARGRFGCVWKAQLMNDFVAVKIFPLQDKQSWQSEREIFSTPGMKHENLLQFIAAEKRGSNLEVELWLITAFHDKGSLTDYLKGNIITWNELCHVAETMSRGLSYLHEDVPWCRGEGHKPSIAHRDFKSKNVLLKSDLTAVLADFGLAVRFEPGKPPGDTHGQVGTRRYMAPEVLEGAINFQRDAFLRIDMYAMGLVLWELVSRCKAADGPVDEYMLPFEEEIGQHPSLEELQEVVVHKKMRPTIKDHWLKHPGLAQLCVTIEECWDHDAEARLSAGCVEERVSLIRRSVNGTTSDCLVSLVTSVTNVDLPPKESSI
Sequence of LYN (P07948 whole entry): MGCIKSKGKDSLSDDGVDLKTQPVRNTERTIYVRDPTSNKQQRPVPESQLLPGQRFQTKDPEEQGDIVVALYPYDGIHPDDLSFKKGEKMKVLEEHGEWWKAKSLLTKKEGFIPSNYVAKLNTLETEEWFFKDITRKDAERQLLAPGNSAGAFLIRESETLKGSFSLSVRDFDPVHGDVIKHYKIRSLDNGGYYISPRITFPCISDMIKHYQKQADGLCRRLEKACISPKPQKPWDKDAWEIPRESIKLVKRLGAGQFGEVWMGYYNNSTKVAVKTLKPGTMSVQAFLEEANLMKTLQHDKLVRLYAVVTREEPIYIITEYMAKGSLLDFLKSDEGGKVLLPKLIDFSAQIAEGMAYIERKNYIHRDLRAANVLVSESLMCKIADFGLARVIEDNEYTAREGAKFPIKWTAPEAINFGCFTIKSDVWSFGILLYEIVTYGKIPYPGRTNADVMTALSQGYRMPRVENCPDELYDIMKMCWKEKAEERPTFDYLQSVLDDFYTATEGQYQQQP
Sequence of PLK2 (Q9NYY3 whole entry): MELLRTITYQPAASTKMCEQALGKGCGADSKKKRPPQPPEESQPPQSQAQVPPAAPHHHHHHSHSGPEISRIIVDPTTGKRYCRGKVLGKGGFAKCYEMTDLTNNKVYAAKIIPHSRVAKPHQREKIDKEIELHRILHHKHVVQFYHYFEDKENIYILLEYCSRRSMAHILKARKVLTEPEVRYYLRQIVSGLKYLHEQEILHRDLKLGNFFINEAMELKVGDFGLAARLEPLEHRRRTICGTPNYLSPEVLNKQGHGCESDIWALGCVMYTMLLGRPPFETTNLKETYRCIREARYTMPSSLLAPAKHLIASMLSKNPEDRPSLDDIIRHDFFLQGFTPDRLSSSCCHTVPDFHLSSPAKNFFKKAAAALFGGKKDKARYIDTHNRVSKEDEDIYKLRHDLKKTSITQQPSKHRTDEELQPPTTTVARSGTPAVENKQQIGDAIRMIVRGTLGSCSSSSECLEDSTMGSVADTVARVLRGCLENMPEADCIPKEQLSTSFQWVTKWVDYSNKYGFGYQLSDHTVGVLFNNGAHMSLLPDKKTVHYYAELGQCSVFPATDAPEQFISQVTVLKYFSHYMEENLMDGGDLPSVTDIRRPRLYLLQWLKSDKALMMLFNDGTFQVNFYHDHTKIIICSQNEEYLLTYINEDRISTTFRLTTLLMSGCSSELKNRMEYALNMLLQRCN
Sequence of AKT2 (P31751 whole entry): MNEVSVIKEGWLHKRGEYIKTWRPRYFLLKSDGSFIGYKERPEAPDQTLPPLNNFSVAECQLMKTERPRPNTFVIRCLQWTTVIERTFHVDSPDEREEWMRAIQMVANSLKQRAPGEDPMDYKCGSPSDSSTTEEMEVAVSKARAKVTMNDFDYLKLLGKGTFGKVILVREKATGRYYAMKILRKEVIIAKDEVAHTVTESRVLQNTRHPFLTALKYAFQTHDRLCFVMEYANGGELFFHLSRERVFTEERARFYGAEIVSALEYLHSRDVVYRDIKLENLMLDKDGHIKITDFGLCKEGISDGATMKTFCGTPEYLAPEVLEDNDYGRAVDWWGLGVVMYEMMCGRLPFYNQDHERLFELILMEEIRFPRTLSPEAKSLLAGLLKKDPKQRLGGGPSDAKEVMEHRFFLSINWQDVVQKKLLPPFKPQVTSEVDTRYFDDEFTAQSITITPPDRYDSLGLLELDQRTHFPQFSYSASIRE
Sequence of TAOK2 (Q9UL54 whole entry): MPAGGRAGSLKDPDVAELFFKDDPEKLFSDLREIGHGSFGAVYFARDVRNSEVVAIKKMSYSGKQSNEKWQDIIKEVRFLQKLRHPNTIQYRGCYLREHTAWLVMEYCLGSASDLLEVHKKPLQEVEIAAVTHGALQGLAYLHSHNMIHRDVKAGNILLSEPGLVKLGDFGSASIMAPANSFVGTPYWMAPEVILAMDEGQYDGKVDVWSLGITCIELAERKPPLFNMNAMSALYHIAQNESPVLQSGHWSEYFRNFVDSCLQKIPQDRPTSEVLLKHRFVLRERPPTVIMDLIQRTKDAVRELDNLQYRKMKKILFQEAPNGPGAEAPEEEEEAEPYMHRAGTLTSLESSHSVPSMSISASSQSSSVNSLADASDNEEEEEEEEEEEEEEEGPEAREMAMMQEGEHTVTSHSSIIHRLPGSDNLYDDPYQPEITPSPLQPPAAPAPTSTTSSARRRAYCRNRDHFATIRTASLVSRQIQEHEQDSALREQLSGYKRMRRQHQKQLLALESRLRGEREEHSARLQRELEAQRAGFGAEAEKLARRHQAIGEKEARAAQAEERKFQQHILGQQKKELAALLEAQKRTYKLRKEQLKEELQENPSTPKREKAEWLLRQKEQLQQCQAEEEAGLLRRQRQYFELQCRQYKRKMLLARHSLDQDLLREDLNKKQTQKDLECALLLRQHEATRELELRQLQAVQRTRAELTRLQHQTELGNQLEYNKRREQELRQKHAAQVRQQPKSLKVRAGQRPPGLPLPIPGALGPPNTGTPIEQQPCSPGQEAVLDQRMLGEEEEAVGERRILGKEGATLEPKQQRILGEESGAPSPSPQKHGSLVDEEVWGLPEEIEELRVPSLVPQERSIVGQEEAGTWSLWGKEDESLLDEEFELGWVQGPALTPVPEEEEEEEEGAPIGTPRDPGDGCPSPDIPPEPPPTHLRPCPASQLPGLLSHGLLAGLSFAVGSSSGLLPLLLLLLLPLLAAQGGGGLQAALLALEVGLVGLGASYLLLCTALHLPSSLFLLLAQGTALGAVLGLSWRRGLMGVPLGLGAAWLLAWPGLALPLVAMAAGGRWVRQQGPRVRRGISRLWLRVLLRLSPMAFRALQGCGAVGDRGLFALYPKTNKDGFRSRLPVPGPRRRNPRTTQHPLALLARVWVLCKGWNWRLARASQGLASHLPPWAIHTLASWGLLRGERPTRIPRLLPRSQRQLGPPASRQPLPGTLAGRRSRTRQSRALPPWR
Sequence of PIK3CA(E545K) (P42336 whole entry E545K): as the sequence (P42336 whole entry Q546K) above, with E545K, K546Q counted along it

Structure (SMILES)	remaining binding at 10 µM [1] [%]	remaining binding at 10 µM [2] [%]	remaining binding at 10 µM [3] [%]	remaining binding at 10 µM [4] [%]	remaining binding at 10 µM [5] [%]	remaining binding at 10 µM [6] [%]	remaining binding at 10 µM [7] [%]	remaining binding at 10 µM [8] [%]	remaining binding at 10 µM [9] [%]	remaining binding at 10 µM [10] [%]	remaining binding at 10 µM [11] [%]	remaining binding at 10 µM [12] [%]	remaining binding at 10 µM [13] [%]	remaining binding at 10 µM [14] [%]	remaining binding at 10 µM [15] [%]	remaining binding at 10 µM [16] [%]	remaining binding at 10 µM [17] [%]	remaining binding at 10 µM [18] [%]	remaining binding at 10 µM [19] [%]	remaining binding at 10 µM [20] [%]	other results
COc1cc(N2CCC(N3CCN(C)CC3)CC2)ccc1Nc1ncc2c(n1)N(C)c1sc(C)nc1C(=O)N2 [Compound 3, 6-((2-methoxy-4-(4-(4-methylpiperazin-1-yl)piperidin-1-yl)phenyl)amino)-2,4-dimethyl-4,9-dihydro-10H-pyrimido[5,4-b]thiazolo[5,4-e][1,4]diazepin-10-one]	92	75	73	86	70	78	37	4.2	100	95	83	100	98	69	100	100	22	100	67	100	remaining binding at 10 µM [21]: 90%; remaining binding at 10 µM [22]: 100%; remaining binding at 10 µM [23]: 98%; remaining binding at 10 µM [24]: 100%; remaining binding at 10 µM [25]: 81%; remaining binding at 10 µM [26]: 100%; remaining binding at 10 µM [27]: 100%; remaining binding at 10 µM [28]: 83%; remaining binding at 10 µM [29]: 100%; remaining binding at 10 µM [30]: 100%; remaining binding at 10 µM [31]: 100%; remaining binding at 10 µM [32]: 100%; remaining binding at 10 µM [33]: 95%; remaining binding at 10 µM [34]: 100%; remaining binding at 10 µM [35]: 72%
COc1cc(N2CCC(N3CCN(C)CC3)CC2)ccc1Nc1ncc2c(n1)N(C)c1sc(C)nc1C(=O)N2C [Compound 5, 6-((2-methoxy-4-(4-(4-methylpiperazin-1-yl)piperidin-1-yl)phenyl)amino)-2,4,9-trimethyl-4,9-dihydro-10H-pyrimido[5,4-b]thiazolo[5,4-e][1,4]diazepin-10-one]	100	100	100	97	100	100	99	31	100	97	40	98	32	100	100	99	100	100	95	99	remaining binding at 10 µM [21]: 100%; remaining binding at 10 µM [22]: 94%; remaining binding at 10 µM [23]: 92%; remaining binding at 10 µM [24]: 62%; remaining binding at 10 µM [25]: 19%; remaining binding at 10 µM [26]: 94%; remaining binding at 10 µM [27]: 99%; remaining binding at 10 µM [28]: 100%; remaining binding at 10 µM [29]: 100%; remaining binding at 10 µM [30]: 100%; remaining binding at 10 µM [31]: 91%; remaining binding at 10 µM [32]: 80%; remaining binding at 10 µM [33]: 93%; remaining binding at 10 µM [34]: 89%; remaining binding at 10 µM [35]: 97%
